Assay results taken from PubChem BioAssay AID248 (DTP/NCI, 2004).
Where “and” joins values, the source holds several entries; their conditions need not be identical. Equal entries are not always repeated. Inconclusive results and toxic doses are left out. No stated cut-off is given here; in the data, active means T/C of 150% or more; inactive means T/C below 125%.

Tested on: L1210 leukemia ip in BDF1 mice, survival T/C
Assay: NCI In Vivo Anticancer Drug Screen. Data for tumor model L1210 Leukemia (intraperitoneal) in B6D2F1 (BDF1) mice
Settings: endpoint: mean survival time, higher = longer survival
Method in brief: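 Transplantable tumor model; survival measured in treated vs vehicle control mice. Value = treated/control.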

[1] = dose: 100.0 mg/kg/injection, schedule: Q01DX001 (ip), vehicle: Klucel (hydroxypropylcellulose) (HPC)
[2] = dose: 200.0 mg/kg/injection, schedule: Q01DX001 (ip), vehicle: Klucel (hydroxypropylcellulose) (HPC)
[3] = dose: 100.0 mg/kg/injection, schedule: Q04DX003 (ip), vehicle: saline
[4] = dose: 150.0 mg/kg/injection, schedule: Q04DX003 (ip), vehicle: saline
[5] = dose: 100.0 mg/kg/injection, schedule: Q01DX009 (ip), vehicle: saline
[6] = dose: 200.0 mg/kg/injection, schedule: Q01DX009 (ip), vehicle: saline
[7] = dose: 200.0 mg/kg/injection, schedule: Q04DX003 (ip), vehicle: saline
[8] = dose: 400.0 mg/kg/injection, schedule: Q04DX003 (ip), vehicle: saline
[9] = dose: 100.0 mg/kg/injection, schedule: Q04DX003 (ip), vehicle: Klucel (hydroxypropylcellulose) (HPC)
[10] = dose: 200.0 mg/kg/injection, schedule: Q04DX003 (ip), vehicle: Klucel (hydroxypropylcellulose) (HPC)
[11] = dose: 400.0 mg/kg/injection, schedule: Q04DX003 (ip), vehicle: Klucel (hydroxypropylcellulose) (HPC)
[12] = dose: 100.0 mg/kg/injection, schedule: Q01DX001 (ip), vehicle: carboxymethylcellulose (CMC)
[13] = dose: 200.0 mg/kg/injection, schedule: Q01DX001 (ip), vehicle: carboxymethylcellulose (CMC)
[14] = dose: 12.5 mg/kg/injection, schedule: Q04DX003 (ip), vehicle: Klucel (hydroxypropylcellulose) (HPC)
[15] = dose: 25.0 mg/kg/injection, schedule: Q04DX003 (ip), vehicle: Klucel (hydroxypropylcellulose) (HPC)
[16] = dose: 50.0 mg/kg/injection, schedule: Q04DX003 (ip), vehicle: Klucel (hydroxypropylcellulose) (HPC)
[17] = dose: 400.0 mg/kg/injection, schedule: Q01DX001 (ip), vehicle: carboxymethylcellulose (CMC)
[18] = dose: 400.0 mg/kg/injection, schedule: Q01DX001 (ip), vehicle: Klucel (hydroxypropylcellulose) (HPC)

Measured: T/C

O=C(CC1OC1c1ccccc1)c1ccccc1 (stereo not drawn)
inactive: dose: 50.0 mg/kg/injection, schedule: Q01DX001 (ip), vehicle: Klucel (hydroxypropylcellulose) (HPC) 110 % of control | [1] 100 % of control | dose: 100.0 mg/kg/injection, schedule: Q04DX003 (ip), vehicle: other 99 % of control | [2] 102 % of control | dose: 200.0 mg/kg/injection, schedule: Q04DX003 (ip), vehicle: other 94 % of control | dose: 400.0 mg/kg/injection, schedule: Q04DX003 (ip), vehicle: other 101 % of control

CNCCCCOC
inactive: dose: 100.0 mg/kg/injection, schedule: Q04DX002 (ip), vehicle: saline 117 % of control | dose: 200.0 mg/kg/injection, schedule: Q04DX002 (ip), vehicle: saline 104 % of control

CC(C)[P+](c1ccccc1)(c1ccccc1)c1ccccc1
inactive: dose: 5.0 mg/kg/injection, schedule: Q01DX001 (ip), vehicle: saline 108 % of control | dose: 10.0 mg/kg/injection, schedule: Q01DX001 (ip), vehicle: saline 111 % of control | dose: 16.25 mg/kg/injection, schedule: Q01DX009 (ip), vehicle: saline 100 % of control | dose: 20.0 mg/kg/injection, schedule: Q01DX001 (ip), vehicle: saline 118 % of control | dose: 25.0 mg/kg/injection, schedule: Q04DX003 (ip), vehicle: saline 113 % of control | dose: 40.0 mg/kg/injection, schedule: Q01DX001 (ip), vehicle: saline 113 % of control | dose: 50.0 mg/kg/injection, schedule: Q04DX003 (ip), vehicle: saline 103 % of control | dose: 65.0 mg/kg/injection, schedule: Q04DX003 (ip), vehicle: saline 107 % of control and 116 % of control | dose: 100.0 mg/kg/injection, schedule: Q01DX001 (ip), vehicle: saline 108 % of control | [3] 118 % of control | [4] 90 % of control

O=C(OC1CCCCC1c1ccccc1)c1cc([N+](=O)[O-])cc([N+](=O)[O-])c1 (stereo not drawn)
inactive: dose: 100.0 mg/kg/injection, schedule: Q01DX001 (ip), vehicle: other 89 % of control | dose: 200.0 mg/kg/injection, schedule: Q01DX001 (ip), vehicle: other 89 % of control | dose: 400.0 mg/kg/injection, schedule: Q01DX001 (ip), vehicle: other 89 % of control

O=S1C=C(c2ccc(Cl)cc2)OC1 (stereo not drawn)
inactive: dose: 12.0 mg/kg/injection, schedule: Q01DX001 (ip), vehicle: saline 102 % of control | dose: 25.0 mg/kg/injection, schedule: Q01DX001 (ip), vehicle: saline 107 % of control | dose: 50.0 mg/kg/injection, schedule: Q01DX001 (ip), vehicle: saline 107 % of control

FC(F)(F)c1ccc2c(c1)C1c3ccccc3C2c2ccccc21
inactive: [5] 98 % of control | [3] 100 % of control | [6] 100 % of control | [7] 98 % of control | dose: 400.0 mg/kg/injection, schedule: Q01DX009 (ip), vehicle: saline 91 % of control | [8] 100 % of control

CCOC(=O)COCC(=O)OCC
inactive: dose: 100.0 mg/kg/injection, schedule: Q04DX002 (ip), vehicle: saline with Tween-80 98 % of control | dose: 200.0 mg/kg/injection, schedule: Q04DX002 (ip), vehicle: saline with Tween-80 98 % of control | dose: 400.0 mg/kg/injection, schedule: Q04DX002 (ip), vehicle: saline with Tween-80 102 % of control

CCOC(=O)NC(=S)[S][Sb]([S]C(=S)NC(=O)OCC)[S]c1nc2ccc(N=Nc3ccc(NS(=O)(=O)c4ccc(NC(=O)C(Sc5ncnc6nc[nH]c56)SC5N=C=Nc6nc[nH]c65)cc4)cc3)cc2s1 (stereo not drawn)
inactive: dose: 75.0 mg/kg/injection, schedule: Q04DX003 (ip), vehicle: saline 100 % of control | [4] 91 % of control | dose: 300.0 mg/kg/injection, schedule: Q04DX003 (ip), vehicle: saline 98 % of control

N#Cc1cc(C(Cl)(Cl)Cl)ccc1C(Cl)(Cl)Cl
inactive: [9] 97 % of control | [10] 95 % of control | [11] 90 % of control

O=C1OCC/C1=C\c1ccccc1
inactive: [12] 91 % of control | [13] 94 % of control

COC(=O)C1=COC(C)C2CN3CCc4c([nH]c5cc(OC)ccc45)C3CC12 (stereo not drawn)
inactive: dose: 22.0 mg/kg/injection, schedule: Q01DX Z (ip), vehicle: other 100 % of control | dose: 44.0 mg/kg/injection, schedule: Q01DX Z (ip), vehicle: other 86 % of control

N#Cc1cccc(C[P+](c2ccccc2)(c2ccccc2)c2ccccc2)c1
inactive: dose: 12.5 mg/kg/injection, schedule: Q01DX009 (ip), vehicle: Klucel (hydroxypropylcellulose) (HPC) 100 % of control | [14] 111 % of control | dose: 25.0 mg/kg/injection, schedule: Q01DX009 (ip), vehicle: Klucel (hydroxypropylcellulose) (HPC) 102 % of control | [15] 111 % of control | [16] 100 % of control

O=C(N/N=C/c1ccncc1)c1ccccc1
inactive: [5] 112 % of control | [6] 112 % of control

O=C1c2ccccc2C(=O)c2c(O)c(Cc3ccccc3)cc(O)c21
inactive: [3] 105 % of control | [7] 97 % of control | [8] 97 % of control

C=CCn1c(-c2cccs2)nc2c(Cl)ncnc21
inactive: dose: 24.0 mg/kg/injection, schedule: Q01DX009 (ip), vehicle: steriod suspending solution 88 % of control | dose: 39.0 mg/kg/injection, schedule: Q01DX009 (ip), vehicle: steriod suspending solution 90 % of control

Nc1cnccc1N1CCN(c2ccc(Cl)c(Cl)c2)CC1
inactive: dose: 100.0 mg/kg/injection, schedule: Q01DX009 (ip), vehicle: gum acacia 95 % of control

O=c1sc2ccccc2n1-c1ccccc1
inactive: [9] 96 % of control | [10] 93 % of control

Cc1cccc(C(=O)O)c1CC1NCCC2c3ccccc3NC12 (stereo not drawn)
inactive: dose: 75.0 mg/kg/injection, schedule: Q01DX001 (ip), vehicle: saline 98 % of control | dose: 150.0 mg/kg/injection, schedule: Q01DX001 (ip), vehicle: saline 100 % of control

O=C1NC(=O)C(O)(O)C(=O)N1
inactive: [5] 104 % of control | [6] 93 % of control

CCOC(=O)C(F)=C(CF)CF
inactive: dose: 50.0 mg/kg/injection, schedule: Q01DX001 (ip), vehicle: carboxymethylcellulose (CMC) 105 % of control | [12] 111 % of control | [13] 109 % of control | [17] 94 % of control

COc1cc2cccccc-2cc1=O
inactive: dose: 50.0 mg/kg/injection, schedule: Q01DX009 (ip), vehicle: other 104 % of control | dose: 100.0 mg/kg/injection, schedule: Q01DX009 (ip), vehicle: other 89 % of control | [9] 103 % of control | dose: 200.0 mg/kg/injection, schedule: Q01DX009 (ip), vehicle: other 101 % of control | [10] 97 % of control | [11] 103 % of control

O=C1N(CCCl)CCN1c1ccccc1
inactive: [1] 93 % of control | dose: 100.0 mg/kg/injection, schedule: Q01DX009 (ip), vehicle: Klucel (hydroxypropylcellulose) (HPC) 104 % of control | [2] 96 % of control | dose: 200.0 mg/kg/injection, schedule: Q01DX009 (ip), vehicle: Klucel (hydroxypropylcellulose) (HPC) 106 % of control | [18] 95 % of control | dose: 400.0 mg/kg/injection, schedule: Q01DX009 (ip), vehicle: Klucel (hydroxypropylcellulose) (HPC) 106 % of control

CCOC(=O)c1cc([N+](=O)[O-])c([N+](=O)[O-])cc1Cl
inactive: [14] 102 % of control | [15] 103 % of control | [16] 98 % of control

CN1CN(c2ccccc2)C2(CCN(Cc3cc(=O)c4ccccc4o3)CC2)C1=O
inactive: [9] 102 % of control | [10] 101 % of control | [11] 98 % of control

CC(C)(C)O[Si](C)(C)CCl
inactive: [12] 92 % of control | [13] 92 % of control | [17] 92 % of control

COc1cc(C(=O)O)ccc1OCCNS(C)(=O)=O
inactive: [1] 96 % of control | [9] 105 % of control | [2] 102 % of control | [10] 96 % of control | [18] 100 % of control | [11] 94 % of control

COc1ccc2c(c1)CCC2=O
inactive: dose: 50.0 mg/kg/injection, schedule: Q01DX009 (ip), vehicle: saline with Tween-80 112 % of control | dose: 100.0 mg/kg/injection, schedule: Q01DX009 (ip), vehicle: saline with Tween-80 112 % of control | [9] 91 % of control | [10] 96 % of control
